What was measured:
Assay type in all cases: cell-based
HNFs [1] = test: Comparative collagen I synthesis by fibroblasts, ELISA; conditions: 3 days
Experimental: HNFs were grown in 24-well plates for 24 hours. The cells were placed in contact or not with test products at different concentrations for 3 days. The collagen synthesis was evaluated by ELISA assay on the culture supernatant and the result was reduced to the number of cells.

FHNs = test: Comparative collagen I synthesis by fibroblasts, IMF; conditions: 6 days
Experimental: FHNs were grown in 24-well plates for 24 hours. The cells were placed in contact with test products (or their excipient) at different concentrations for 6 days. The collagen I produced by the cells was then quantified by immunofluorescence on the fixed mats, and the result was then reduced to the number of cells.

HNFs [2] = test: Comparative elastin synthesis by fibroblasts, ELISA; conditions: 12.5 ppm; 3 days

Substance | Collagen I production (ELISA method), comparison (HNFs [1]; 10 ppm) | Collagen I production (ELISA method), comparison (HNFs [1]; 15 ppm) | Production of collagen I (IMF method), comparison (FHNs; 5 ppm) | Production of collagen I (IMF method), comparison (FHNs; 10 ppm) | Production of elastin (ELISA method), comparison (HNFs [2])
Cyclo(-Met-Leu-Ile-Pro-Pro-Phe-Phe-Val-Ile) (MLIPPFFVI; cyclic; Synthetic peptide or Linum usitatissimum; (1)..(1) M can be oxidized into sulfoxide or sulfone; (1)..(9) Cyclic peptide) [Linusorb B2] | +36.2%; p <0.01 | +39.2%; p <0.01 | +34.2; dns | +41.8; p <0.01 | +43%; p <0.05
cyclo(ILVPPFFLI) [Linusorb B3] | −0.4%; nds | +62.6%; p <0.01 | +111.1; p <0.01 | +121.7; p <0.01 | +58%; p <0.05
